Columns and labels:
[1] = target: T1, Avi-KRAS WT (1-169) GppNHp/RAF1 RBD-3xFLAG (52-151) (Homo sapiens, UniProt P01116); experiment: Raf1-KRAS WT-GppNHP disruption HTRF assay (Biological Example 1); type: binding; settings: KRAS WT-GppNHp/RAF1 RBD HTRF
T1 construct: Avi-KRAS WT (1-169)
In short: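 Using HTRF, the loss of KRAS–effector RAF1 complex was quantified in 50 mM Tris pH 7.5 buffer with 100 mM NaCl and 0.1% BSA. The protein step and reagent step ran 1 h each at room temperature. Activity normalized with DMSO taken as 100%.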

GP2d cells (KRAS G12D) = experiment: Cell-based pERK HTRF assay in GP2d cell (Biological Example 2); settings: GP2d (KRAS G12D) cells
In short: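 Cells grown in DMEM with 10% FBS were exposed to compound for 60 min at 0.25% DMSO, using a 9-point half-log series starting at 1 μM or 100 nM. Lysates were then mixed with d2 and Eu cryptate antibodies for 4–24 h at room temperature, and pERK was read by HTRF.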

[2] = target: T2, Avi-KRAS G12D (2-169) GTP/RAF1 RBD-3xFLAG (51-131) (Homo sapiens, UniProt P01116, G12D); experiment: Raf1-KRAS G12D-GTP disruption HTRF assay (Biological Example 3); type: binding; settings: KRAS G12D, GTP-loaded
T2 construct: Avi-KRAS G12D (2-169)
T2 sequence (P01116 2-169 isoform P01116-2 G12D): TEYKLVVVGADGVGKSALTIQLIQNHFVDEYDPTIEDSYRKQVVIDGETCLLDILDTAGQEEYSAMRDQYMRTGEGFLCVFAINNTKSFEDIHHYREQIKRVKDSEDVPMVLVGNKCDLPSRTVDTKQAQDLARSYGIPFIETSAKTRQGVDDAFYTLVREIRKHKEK
In short: (§1)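 Each KRAS-GTP/RAF1 RBD complex at 50 nM, with 75 nM 3xFLAG-RAF1 RBD (51-131)-Avi, in 50 mM Tris pH 7.5, 100 mM NaCl, 5 mM MgCl2, 0.1% BSA, 0.01% Tween 20, 10% DMSO. Compounds titrated from 30 μM, 10-point 3x series; 1 h at room temperature with shaking. HTRF read, activity as percent of DMSO.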

[3] = target: T3, Avi-KRAS WT (2-169) GTP/RAF1 RBD-3xFLAG (51-131) (Homo sapiens, UniProt P01116); experiment: Raf1-KRAS WT-GTP disruption HTRF assay (Biological Example 3); type: binding; settings: KRAS WT, GTP-loaded
T3 construct: Avi-KRAS WT (2-169)
T3 sequence (P01116 2-169 isoform P01116-2): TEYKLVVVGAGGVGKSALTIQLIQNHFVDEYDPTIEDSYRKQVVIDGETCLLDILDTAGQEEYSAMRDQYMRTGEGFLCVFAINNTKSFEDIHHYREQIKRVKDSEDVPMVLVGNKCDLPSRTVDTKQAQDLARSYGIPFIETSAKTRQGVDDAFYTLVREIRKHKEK
In short: as §1

T1 sequence (P01116 1-169 isoform P01116-2): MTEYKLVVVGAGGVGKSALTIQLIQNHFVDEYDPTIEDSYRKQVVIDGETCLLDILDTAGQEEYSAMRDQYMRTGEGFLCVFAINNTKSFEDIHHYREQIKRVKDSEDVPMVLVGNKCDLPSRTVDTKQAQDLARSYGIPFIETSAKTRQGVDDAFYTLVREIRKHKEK

IC50 [1] | IC50 (GP2d cells (KRAS G12D); GP2d) | IC50 (GP2d cells (KRAS G12D); GP2d, pERK HTRF) | IC50 [2] | IC50 [3] | IC50 (GP2d cells (KRAS G12D); pERK HTRF) | IC50 (GP2d cells (KRAS G12D)) | Compound
100 to 1000 nM | < 100 nM | < 100 nM | 100 to 1000 nM | 100 to 1000 nM | – | – | CCN(c1nc(OC[C@@]23CCCN2C[C@H](F)C3)nc2c(F)c(-c3ccc(F)c4sc(N)c(C#N)c34)c(C(F)(F)F)cc12)[C@@H]1C[C@@H](C)N(C(C)=O)C1 (atropisomer, axis not shown) [Compound 527]
< 100 nM | < 100 nM | < 100 nM | ≤ 100 nM | 100 to 1000 nM | – | – | CCN(c1nc(OC[C@@]23CCCN2C[C@H](F)C3)nc2c(F)c(-c3ccc(F)c4sc(N)c(C#N)c34)c(C(F)(F)F)cc12)[C@H]1C[C@@H]2COC(=O)N2C1 (atropisomer, axis not shown) [Compound 519]
< 100 nM | < 100 nM | – | ≤ 100 nM | ≤ 100 nM | < 100 nM | – | CCC(=O)N1CC[C@@H](N(CC)c2nc(OC[C@@]34CCCN3C[C@H](F)C4)nc3c(F)c(-c4ccc(F)c5sc(N)c(C#N)c45)c(C(F)(F)F)cc23)[C@H]1C (atropisomer, axis not shown) [Compound 523]
< 100 nM | < 100 nM | < 100 nM | ≤ 100 nM | ≤ 100 nM | – | – | CCN(c1nc(OC[C@@]23CCCN2C[C@H](F)C3)nc2c(F)c(-c3ccc(F)c4sc(N)c(C#N)c34)c(C(F)(F)F)cc12)[C@H]1CCN(C(=O)C(C)C)C1 (single isomer, unassigned) [Compound 469]
100 to 1000 nM | < 100 nM | < 100 nM | 100 to 1000 nM | 100 to 1000 nM | – | – | Cc1c(C(=O)N(C)C)nn2c1CN(c1nc(OC[C@@]34CCCN3C[C@H](F)C4)nc3c(F)c(-c4ccc(F)c5sc(N)c(C#N)c45)c(C(F)(F)F)cc13)CC2 [Compound 501]
100 to 1000 nM | < 100 nM | < 100 nM | 100 to 1000 nM | 100 to 1000 nM | – | – | CCN(c1nc(OC[C@@]23CCCN2C[C@H](F)C3)nc2c(F)c(-c3ccc(F)c4sc(N)c(C#N)c34)c(C(F)(F)F)cc12)[C@@H]1C[C@H]2CCC(=O)N2C1 (atropisomer, axis not shown) [Compound 532]
1000 to 10000 nM | – | < 100 nM | – | – | – | – | Cc1cc2n(n1)CCN(c1nc(OCC34CCCN3CC(F)C4)nc3c(F)c(-c4ccc(F)c5sc(N)c(C#N)c45)c(C(F)(F)F)cc13)C2 (centres unmarked) [Compound 484]
< 100 nM | < 100 nM | < 100 nM | ≤ 100 nM | 100 to 1000 nM | – | – | CCN(c1nc(OC[C@@]23CCCN2C[C@H](F)C3)nc2c(F)c(-c3ccc(F)c4sc(N)c(C#N)c34)c(C(F)(F)F)cc12)[C@@H]1CC(=O)N(C2CC2)C1 [Compound 537]
< 100 nM | – | < 100 nM | – | – | – | – | CCN(c1nc(OC[C@@]23CCCN2C[C@H](F)C3)nc2c(F)c(-c3ccc(F)c4sc(N)c(C#N)c34)c(C(F)(F)F)cc12)[C@H]1C[C@H](C)N(C(=O)C2CC2)C1 [Compound 470]
– | < 100 nM | – | ≤ 100 nM | 100 to 1000 nM | – | – | CCN(c1nc(OC[C@@]23CCCN2C[C@H](F)C3)nc2c(F)c(-c3ccc(F)c4sc(N)c(C#N)c34)c(C(F)(F)F)cc12)[C@H]1CCN(C(=O)N(C)C)C1 (atropisomer, axis not shown) [Compound 540, (3S)-3-[[7-(2-amino-3-cyano-7-fluoro-benzothiophen-4-yl)-8-fluoro-2-[[(2R,8S)-2-fluoro-1,2,3,5,6,7-hexahydropyrrolizin-8-yl]methoxy]-6-(trifluoromethyl)quinazolin-4-yl]-ethyl-amino]-N,N-dimethyl-pyrrolidine-1-carboxamide]
100 to 1000 nM | < 100 nM | < 100 nM | 100 to 1000 nM | 100 to 1000 nM | – | – | CN(C)C(=O)c1nn2c(c1Cl)CN(c1nc(OC[C@@]34CCCN3C[C@H](F)C4)nc3c(F)c(-c4ccc(F)c5sc(N)c(C#N)c45)c(C(F)(F)F)cc13)CC2 [Compound 517]
100 to 1000 nM | < 100 nM | < 100 nM | 100 to 1000 nM | 100 to 1000 nM | – | – | CCN(c1nc(OC[C@@]23CCCN2C[C@H](F)C3)nc2c(F)c(-c3ccc(F)c4sc(N)c(C#N)c34)c(C(F)(F)F)cc12)[C@@H]1CC(=O)N(C)C1 [Compound 520]
< 100 nM | < 100 nM | < 100 nM | 100 to 1000 nM | 100 to 1000 nM | – | – | CCN(c1nc(OC[C@@]23CCCN2C[C@H](F)C3)nc2c(F)c(-c3ccc(F)c4sc(N)c(C#N)c34)c(C(F)(F)F)cc12)[C@H]1C[C@H](C)N(C(=O)C2COC2)C1 (atropisomer, axis not shown) [Compound 539]
< 100 nM | < 100 nM | – | ≤ 100 nM | ≤ 100 nM | < 100 nM | – | CCN(c1nc(OC[C@@]23CCCN2C[C@H](F)C3)nc2c(F)c(-c3ccc(F)c4sc(N)c(C#N)c34)c(C(F)(F)F)cc12)[C@@H]1CCN(C(=O)C2CC2)[C@@H]1C (atropisomer, axis not shown) [Compound 524]
< 100 nM | – | – | – | – | < 100 nM | – | CCN(c1nc(OC[C@@]23CCCN2C[C@H](F)C3)nc2c(F)c(-c3ccc(F)c4sc(N)c(C#N)c34)c(C(F)(F)F)cc12)[C@H]1CCS(=O)(=O)C1 (atropisomer, axis not shown) [Compound 492]
1000 to 10000 nM | – | < 100 nM | – | – | – | – | N#Cc1c(N)sc2c(F)ccc(-c3c(C(F)(F)F)cc4c(N5CCn6nc(N7CCOCC7)cc6C5)nc(OC[C@@]56CCCN5C[C@H](F)C6)nc4c3F)c12 [Compound 485]
< 100 nM | – | – | ≤ 100 nM | 100 to 1000 nM | < 100 nM | < 100 nM | CCN(c1nc(OC[C@@]23CCCN2C[C@H](F)C3)nc2c(F)c(-c3ccc(F)c4sc(N)c(C#N)c34)c(C(F)(F)F)cc12)[C@H]1CCN(C(=O)OC)C1 (atropisomer, axis not shown) [Compound 541, methyl(3S)-3-[[7-(2-amino-3-cyano-7-fluoro-benzothiophen-4-yl)-8-fluoro-2-[[(2R,8S)-2-fluoro-1,2,3,5,6,7-hexahydropyrrolizin-8-yl]methoxy]-6-(trifluoromethyl)quinazolin-4-yl]-ethyl-amino]pyrrolidine-1-carboxylate]
< 100 nM | < 100 nM | < 100 nM | ≤ 100 nM | ≤ 100 nM | – | – | CCN(c1nc(OC[C@@]23CCCN2C[C@H](F)C3)nc2c(F)c(-c3ccc(F)c4sc(N)c(C#N)c34)c(C(F)(F)F)cc12)[C@H]1C[C@H]2CN(C)C(=O)N2C1 (atropisomer, axis not shown; (aS)) [Compound 543, 2-amino-4-((S)-4-(ethyl((6S,7aS)-2-methyl-3-oxohexahydro-1H-pyrrolo[1,2-c]imidazol-6-yl)amino)-8-fluoro-2-(((2R,7aS)-2-fluorotetrahydro-1H-pyrrolizin-7a(5H)-yl)methoxy)-6-(trifluoromethyl)quinazolin-7-yl)-7-fluorobenzo[b]thiophene-3-carbonitrile]
< 100 nM | < 100 nM | < 100 nM | ≤ 100 nM | ≤ 100 nM | – | – | CCN1C[C@@H](N(CC)c2nc(OC[C@@]34CCCN3C[C@H](F)C4)nc3c(F)c(-c4ccc(F)c5sc(N)c(C#N)c45)c(C(F)(F)F)cc23)CC1=O [Compound 529, 2-amino-4-(4-(ethyl((S)-1-ethyl-5-oxopyrrolidin-3-yl)amino)-8-fluoro-2-(((2R,7aS)-2-fluorotetrahydro-1H-pyrrolizin-7a(5H)-yl)methoxy)-6-(trifluoromethyl)quinazolin-7-yl)-7-fluorobenzo[b]thiophene-3-carbonitrile]
100 to 1000 nM | < 100 nM | < 100 nM | 100 to 1000 nM | 100 to 1000 nM | – | – | CN(C)C(=O)[C@@H]1CC[C@@H](N(C)c2nc(OC[C@@]34CCCN3C[C@H](F)C4)nc3c(F)c(-c4ccc(F)c5sc(N)c(C#N)c45)c(C(F)(F)F)cc23)C1 (atropisomer, axis not shown) [Compound 512]
< 100 nM | < 100 nM | < 100 nM | ≤ 100 nM | 100 to 1000 nM | – | – | CCN(c1nc(OC[C@@]23CCCN2C[C@H](F)C3)nc2c(F)c(-c3ccc(F)c4sc(N)c(C#N)c34)c(C(F)(F)F)cc12)[C@H]1CCN(C(=O)c2ccon2)C1 (atropisomer, axis not shown) [Compound 554]
100 to 1000 nM | – | < 100 nM | – | – | – | – | CCOC(=O)N1CC[C@H](N(CC)c2nc(OC[C@@]34CCCN3C[C@H](F)C4)nc3c(F)c(-c4ccc(F)c5sc(N)c(C#N)c45)c(C(F)(F)F)cc23)C1 [Compound 467]
> 10000 nM | – | – | – | – | 100 to 1000 nM | – | CCN(c1nc(OC[C@@]23CCCN2C[C@H](F)C3)nc2c(F)c(-c3ccc(F)c4sc(N)c(C#N)c34)c(C(F)(F)F)cc12)[C@H]1CCN(C(=O)C(C)C)C1 (atropisomer, axis not shown) [Compound 468]
